# Test results from US6638938B1, “Method for preventing tissue injury from hypoxia” (Cell Therapeutics, Inc., priority 1993, dated 2003).
# Test system: LPAAT (lysophosphatidic acyltransferase)
# Test: inhibition of LPAAT activity
# Type: biochemical
# Conditions: extremely weak inhibitor; above clinically achievable concentrations
structure (smiles),measurement,value
"CC(=O)CCCCn1c(=O)c2c(ncn2C)n(C)c1=O [pentoxifylline, 1-(5-oxohexyl)3,7-dimethylxanthine, reference compound]",concentration required for inhibition of LPAAT activity,> 1 mM
